{"source": "patent US9023340B2", "about": "“Wnt inhibitors for human stem cell differentiation” (ChemRegen, Inc., priority 2011, dated 2015)", "key": {"Wnt signaling": {"tested_on": "Wnt signaling", "experiment": "Wnt assay (Super TOPflash/Wnt3a dual-luciferase reporter in 293T cells)", "assay_type": "cell-based", "details": "Homo sapiens, HEK-293T, TOPflash luciferase normalized to renilla; for inhibition at 1 µM: 1000 nM compound, read-out: Wnt Assay % inh. @ 1000 nM", "procedure": "Wnt assay protocol: 293T cells were grown in DMEM-high glucose (phenol red) supplemented with 10% (v/v) FBS and 1 mM L-glutamine. 1 million (M) cells were transfected with 1 μg Super(7×)TOPflash (Addgene plasmid 12456: M50 Super 8× TOPflash; 1 μg Wnt3a)—and 0.1 μg TK-Renilla-Lux (pRL-TK vector)-vectors using lipofectamine 2000 reagent according to the manufacturer's protocol. Cells were allowed to adhere for 8-10 hours, lifted with trypsin/EDTA, centrifuged, homogenized and counted before seeding 25,000 cells/well onto 96-well plates. After letting cells settle and attach for 1-2 hours in the incubator, a dose of test compound (and media/DMSO controls) was added. Plates were incubated for 18-20 hours and luciferase activities were determined using a Dual-Luciferase assay kit according to the manufacturer's instructions. Chemiluminescence was recorder on a plate reader instrument, and firefly-derived luminescence was normalized against renilla luminescence. Data were derived from at least two independent experiments, with a minimum of three replicates per condition. Non-linear regression analysis (log dose/response) was done using Prism 5 software."}, "[1]": {"tested_on": "hESC H9 lines carrying MYH6-mCherry reporters", "experiment": "Human embryonic stem cell high content screening assay (cardiogenesis, MYH6-mCherry reporter)", "assay_type": "cell-based", "details": "1250 nM compound; MYH6-mCherry fluorescence readout normalized to DMSO treated wells", "procedure": "Human embryonic stem cell (hESC) H9 lines carrying MYH6-mCherry reporters were maintained: in brief, cells were grown on a mouse embryonic fibroblast coated matrigel plate in Knock Out DMEM media supplemented with 20% Knock Out Serum Replacement and 8 ng/ml bFGF. For embryoid body (EB) differentiation, hESC were mechanically passaged onto gelatin-coated dishes preseeded with mouse embryonic fibroblasts. After 4 days hESC colonies were lifted off with a 10 minute 1 mg/ml collagenase IV treatment and directly differentiated in StemPro 34 with addition of 0.5 ng/ml Bmp4 from day 0-1, 10 ng/ml Bmp4, 5 ng/ml bFGF and 3 ng/ml Activin A from day 1-4. At day 4 and were dissociated gently to single cells with TrypLE. Single cells were then transferred in gelatin coated 384-well optical plates in StemPro 34 with […] FGF at a seeding density of 250,000 cells/cm^2. At this point cells were exposed to test compounds. At day 10, media with compound was removed and exchanged for a serum free media (SFM). T3, the thyroid hormone analog triiodothyronine, was added at day 10 to increase the red signal driven by the MYH6 promoter for more reliable imaging. […] For RT-qPCR analysis T3 treatment was omitted to avoid interference with the biological mRNA expression of MYH6. Media was changed to PBS at day 14 and red fluorescence was imaged on an InCell 1000 high throughput microscope. For the quantification of cardiac induction, image analysis was done with the Cyteseer Image Analysis Software package by measuring the total area and intensity of the MYH6-mCherry reporter in each well. The MYH6-expression levels indicated in the graphs represent the multiplication of the total area and intensity of red fluorescence.\nFor toxicity assessment the hESC cell line was engineered for screening with a H2B-GFP reporter, allowing quantification of the cell number. Using Cyteseer, total GFP signal was quantified in each well. Wells with a GFP reduction of 20% or more (relative to vehicle only controls) were flagged for toxicity and were manually confirmed under a bright field microscope for evidence of cell death.\nFor the screens, Z scores (Z score=(average of treated−average of DMSO)/StDev of DMSO) were calculated using the fluorescence readout for each concentration normalized to DMSO treated wells. Integrated Z scores over all concentrations were calculated by adding the Z scores of the 3 concentrations tested. Table 2 reports Z scores at a compound concentration of 1250 nM."}}}
{"smiles": "O=C1[C@@H]2[C@@H]3CC[C@@H](C3)[C@@H]2C(=O)N1[C@H]1CC[C@H](C(=O)Nc2cccnc2)CC1", "note": "[Compound 1]", "values": [{"measurement": "IC50", "setting": "Wnt signaling", "value": 42, "unit": "nM"}, {"measurement": "Cardiogenesis Assay Z score vs DMSO @ 1250 nM", "setting": "[1]", "value": 0.6}]}
{"smiles": "O=C1[C@@H]2[C@@H]3CC[C@@H](C3)[C@@H]2C(=O)N1[C@H]1CC[C@H](C(=O)Nc2ccncc2)CC1", "note": "[Compound 2]", "values": [{"measurement": "IC50", "setting": "Wnt signaling", "value": 47, "unit": "nM"}, {"measurement": "Cardiogenesis Assay Z score vs DMSO @ 1250 nM", "setting": "[1]", "value": 0.2}]}
{"smiles": "CC(=O)c1ccccc1NC(=O)[C@H]1CC[C@H](N2C(=O)[C@@H]3[C@@H]4CC[C@@H](C4)[C@@H]3C2=O)CC1", "note": "[Compound 3]", "values": [{"measurement": "inhibition at 1 µM", "setting": "Wnt signaling", "value": "91 ± 1", "unit": "%"}, {"measurement": "IC50", "setting": "Wnt signaling", "value": 14, "unit": "nM"}, {"measurement": "Cardiogenesis Assay Z score vs DMSO @ 1250 nM", "setting": "[1]", "value": 132.9}]}
{"smiles": "O=C1[C@@H]2[C@@H]3CC[C@@H](C3)[C@@H]2C(=O)N1[C@H]1CC[C@H](C(=O)Nc2ccccn2)CC1", "note": "[Compound 4]", "values": [{"measurement": "IC50", "setting": "Wnt signaling", "value": 86, "unit": "nM"}, {"measurement": "Cardiogenesis Assay Z score vs DMSO @ 1250 nM", "setting": "[1]", "value": 1.8}]}
{"smiles": "COc1ccc(NC(=O)[C@H]2CC[C@H](N3C(=O)[C@@H]4[C@@H]5CC[C@@H](C5)[C@@H]4C3=O)CC2)cn1", "note": "[Compound 5]", "values": [{"measurement": "inhibition at 1 µM", "setting": "Wnt signaling", "value": "75 ± 2", "unit": "%"}, {"measurement": "IC50", "setting": "Wnt signaling", "value": 344, "unit": "nM"}]}
{"smiles": "Cc1ccc(NC(=O)[C@H]2CC[C@H](N3C(=O)[C@@H]4[C@@H]5CC[C@@H](C5)[C@@H]4C3=O)CC2)cn1", "note": "[Compound 6]", "values": [{"measurement": "inhibition at 1 µM", "setting": "Wnt signaling", "value": "48 ± 7", "unit": "%"}, {"measurement": "IC50", "setting": "Wnt signaling", "value": 1380, "unit": "nM"}]}
{"smiles": "O=C1[C@@H]2[C@@H]3CC[C@@H](C3)[C@@H]2C(=O)N1[C@H]1CC[C@H](C(=O)Nc2cccnc2Cl)CC1", "note": "[Compound 7]", "values": [{"measurement": "IC50", "setting": "Wnt signaling", "value": 166, "unit": "nM"}, {"measurement": "Cardiogenesis Assay Z score vs DMSO @ 1250 nM", "setting": "[1]", "value": 3.1}]}
{"smiles": "O=C1[C@@H]2[C@@H]3CC[C@@H](C3)[C@@H]2C(=O)N1[C@H]1CC[C@H](C(=O)Nc2ccc(C(F)(F)F)nc2)CC1", "note": "[Compound 8]", "values": [{"measurement": "inhibition at 1 µM", "setting": "Wnt signaling", "value": "46 ± 7", "unit": "%"}, {"measurement": "IC50", "setting": "Wnt signaling", "value": 870, "unit": "nM"}]}
{"smiles": "O=C1[C@@H]2[C@@H]3CC[C@@H](C3)[C@@H]2C(=O)N1[C@H]1CC[C@H](C(=O)Nc2ccnc(Cl)c2)CC1", "note": "[Compound 9]", "values": [{"measurement": "inhibition at 1 µM", "setting": "Wnt signaling", "value": "68 ± 4", "unit": "%"}, {"measurement": "IC50", "setting": "Wnt signaling", "value": 374, "unit": "nM"}]}
{"smiles": "COC(=O)c1ccccc1NC(=O)[C@H]1CC[C@H](N2C(=O)[C@@H]3[C@@H]4CC[C@@H](C4)[C@@H]3C2=O)CC1", "note": "[Compound 10]", "values": [{"measurement": "IC50", "setting": "Wnt signaling", "value": 67, "unit": "nM"}, {"measurement": "Cardiogenesis Assay Z score vs DMSO @ 1250 nM", "setting": "[1]", "value": 44.9}]}
{"smiles": "O=C1c2ccccc2-c2cccc(NC(=O)[C@H]3CC[C@H](N4C(=O)[C@@H]5[C@@H]6CC[C@@H](C6)[C@@H]5C4=O)CC3)c21", "note": "[Compound 11]", "values": [{"measurement": "IC50", "setting": "Wnt signaling", "value": 193, "unit": "nM"}, {"measurement": "Cardiogenesis Assay Z score vs DMSO @ 1250 nM", "setting": "[1]", "value": 42.7}]}
{"smiles": "CC(=O)c1ccccc1NC(=O)C1CCC(N2C(=O)[C@@H]3[C@@H]4CC[C@@H](C4)[C@@H]3C2=O)CC1", "note": "(stereo partly shown) [Compound 12]", "values": [{"measurement": "inhibition at 1 µM", "setting": "Wnt signaling", "value": "91 ± 1", "unit": "%"}, {"measurement": "IC50", "setting": "Wnt signaling", "value": 23, "unit": "nM"}, {"measurement": "Cardiogenesis Assay Z score vs DMSO @ 1250 nM", "setting": "[1]", "value": 117.0}]}
{"smiles": "O=C1[C@@H]2[C@@H]3CC[C@@H](C3)[C@@H]2C(=O)N1[C@H]1CC[C@H](C(=O)Nc2cncc(O)c2)CC1", "note": "[Compound 13]", "values": [{"measurement": "IC50", "setting": "Wnt signaling", "value": 152, "unit": "nM"}, {"measurement": "Cardiogenesis Assay Z score vs DMSO @ 1250 nM", "setting": "[1]", "value": 99.2}]}
{"smiles": "O=C1CCCc2cccc(NC(=O)[C@H]3CC[C@H](N4C(=O)[C@@H]5[C@@H]6CC[C@@H](C6)[C@@H]5C4=O)CC3)c21", "note": "[Compound 14]", "values": [{"measurement": "IC50", "setting": "Wnt signaling", "value": 19, "unit": "nM"}, {"measurement": "Cardiogenesis Assay Z score vs DMSO @ 1250 nM", "setting": "[1]", "value": 69.6}]}
{"smiles": "CC(=O)c1ncccc1NC(=O)[C@H]1CC[C@H](N2C(=O)[C@@H]3[C@@H]4CC[C@@H](C4)[C@@H]3C2=O)CC1", "note": "[Compound 17]", "values": [{"measurement": "IC50", "setting": "Wnt signaling", "value": 2, "unit": "nM"}, {"measurement": "Cardiogenesis Assay Z score vs DMSO @ 1250 nM", "setting": "[1]", "value": 236.2}]}
{"smiles": "CC(=O)c1ccncc1NC(=O)[C@H]1CC[C@H](N2C(=O)[C@@H]3[C@@H]4CC[C@@H](C4)[C@@H]3C2=O)CC1", "note": "[Compound 18]", "values": [{"measurement": "IC50", "setting": "Wnt signaling", "value": 287, "unit": "nM"}, {"measurement": "Cardiogenesis Assay Z score vs DMSO @ 1250 nM", "setting": "[1]", "value": 0.2}]}
{"smiles": "O=C1[C@@H]2[C@@H]3CC[C@@H](C3)[C@@H]2C(=O)N1[C@H]1CC[C@H](C(=O)Nc2ccc(Br)cn2)CC1", "note": "[Compound 19]", "values": [{"measurement": "inhibition at 1 µM", "setting": "Wnt signaling", "value": "68 ± 4", "unit": "%"}]}
{"smiles": "Cc1ccncc1NC(=O)[C@H]1CC[C@H](N2C(=O)[C@@H]3[C@@H]4CC[C@@H](C4)[C@@H]3C2=O)CC1", "note": "[Compound 20]", "values": [{"measurement": "inhibition at 1 µM", "setting": "Wnt signaling", "value": 0, "unit": "%"}]}
{"smiles": "Cc1cncc(NC(=O)[C@H]2CC[C@H](N3C(=O)[C@@H]4[C@@H]5CC[C@@H](C5)[C@@H]4C3=O)CC2)c1", "note": "[Compound 21]", "values": [{"measurement": "inhibition at 1 µM", "setting": "Wnt signaling", "value": "49 ± 5", "unit": "%"}]}
